Assay results from patent publication US10603319B2, “Pyrimidine derivatives and their use in treating or preventing a respiratory syncytial virus infection” (REVIRAL LIMITED, priority 2016, dated 2020).

Assay: Liver microsomal stability, dog
Assay type: in vitro ADME
Settings: male, Beagle, pooled liver microsomes, pH 7.4, 0.5 mg/mL protein, read-out: Liver Microsomal Stability (T1/2/mins) dog
Experimental: Microsomal Incubation: Experimental Procedure
Pooled human liver microsomes (pooled male and female), pooled rat liver microsomes (male Sprague Dawley rats) and pooled dog liver microsomes (male Beagle dog) are purchased from a reputable commercial supplier and stored at −80° C. prior to use.
Microsomes (final protein concentration 0.5 mg/mL), 0.1 M phosphate buffer pH 7.4 and test compound (final substrate concentration 3 μM; final DMSO concentration 0.25%) are pre-incubated at 37° C. prior to the addition of NADPH (final concentration 1 mM) to initiate the reaction. The final incubation volume is 50 μL. A control incubation is included for each compound tested where 0.1 M phosphate buffer pH 7.4 is added instead of NADPH (minus NADPH). Two control compounds are included with each species. All incubations are performed singularly for each test compound.
Compounds are incubated for 0, 5, 15, 30 and 45 min. The control (minus NADPH) is incubated for 45 min only. […] Following protein precipitation, the sample supernatants are combined in cassettes of up to 4 compounds, internal standard is added and samples analysed by LC-MS/MS. From a plot of ln peak area ratio (compound peak area/internal standard peak area) against time, the gradient of the line is determined. Subsequently, half-life and intrinsic clearance are calculated

Structure (SMILES): NC1CCN(c2ncc(CN3C(=O)C4(CC4)c4ccc(F)cc43)c(N[C@H]3CC[C@H](O)CC3)n2)C1 (stereo partly shown) [Compound 2, 1′-((2-(3-Aminopyrrolidin-1-yl)-4-(((1r,4r)-4-hydroxycyclohexyl)amino)pyrimidin-5-yl)methyl)-6′-fluorospiro[cyclopropane-1,3′-indolin]-2′-one]
- half-life at 3 μM: > 4 h
